Assay [1] has as its system gel-filtered human platelets. Put plainly: Inhibition of ADP-stimulated platelet aggregation (IC50 Plaggin). Format: cell-based. To be noted: ADP-initiated (10 mM ADP) aggregation of gel-filtered human platelets, fibrinogen 100 ug/ml, Ca2+ 1 mM, 37° C. As for the experimental part:
Platelet aggregation is measured at 37° C. in a Chronolog aggregometer. The reaction mixture contains gel-filtered human platelets (2×10^8 per ml), fibrinogen (100 micrograms per ml (ug/ml)), Ca^2 +(1 mM), and the compound to be tested. The aggregation is initiated by adding […] ADP 1 minute after the other components are added. The reaction is then allowed to proceed for at least 2 minutes. The extent of inhibition of aggregation is expressed as the percentage of the rate of aggregation observed in the absence of inhibitor. The IC50 is the dose of a particular compound inhibiting aggregation by 50% relative to a control lacking the compound.
In addition to the following preparative procedures, several examples of in vitro bioactivity of compounds within the scope of the present invention are indicated. To illustrate, one test which is used to evaluate fibrinogen receptor antagonist activity is based on evaluation of inhibition of ADP-stimulated platelets. Aggregation requires that fibrinogen bind to and occupy the platelet fibrinogen receptor site. Inhibitors of fibrinogen binding inhibit aggregation. In the ADP-stimulated platelet aggregation assay used to determine inhibition associated with the compounds claimed in the instant invention, human platelets are isolated from fresh blood, collected into acid citrate/dextrose o by differential centrifugation followed by gel filtration on Sepharose 2B in divalent ion-free Tyrode's buffer (pH 7.4) containing 2% bovine serum albumin.

In another assay the test system is gp IIb/IIIa complex. To be noted: cited from earlier work.

We go through eight molecules from patent US5494921A, “Fibrinogen receptor antagonists” (Merck & Co., Inc., priority 1994, dated 1996).

For the molecule `CCCCS(=O)(=O)N[C@@H](CNC(=O)C1CC1C(=O)NCCC1CCNCC1)C(=O)O` (some centres unmarked), in assay [1], the IC50 (usually the midpoint of a concentration-inhibition curve) is 210 nM.

`CCCCS(=O)(=O)N[C@@H](CNC(=O)[C@@H]1C[C@H]1C(=O)NCCC1CCNCC1)C(=O)O`: in assay [1], the IC50 came out at 77 nM.

On to `CCCCS(=O)(=O)N[C@@H](CNC(=O)[C@H]1C[C@@H]1C(=O)NCCC1CCNCC1)C(=O)O`, for which half-maximal inhibition in assay [1] (IC50) required 580 nM.

In assay [1], `CCCCS(=O)(=O)N[C@@H](CCNC(=O)[C@@H]1C[C@H]1C(=O)NCCC1CCNCC1)C(=O)O` had an IC50 of 3500 nM.

Regarding `CCCCS(=O)(=O)N[C@@H](CCNC(=O)[C@H]1C[C@@H]1C(=O)NCCC1CCNCC1)C(=O)O`, the IC50 in assay [1] turned out to be 17000 nM.

In assay [1], `CCCCS(=O)(=O)N[C@@H](CNC(=O)C1CC1CC(=O)NCCC1CCNCC1)C(=O)O` (some centres unmarked) registered an IC50 of 140 nM.

In the case of `C[C@H](CC(=O)O)NC(=O)[C@@H]1C[C@H]1C(=O)NCCC1CCNCC1`, it took 17000 nM to reach half-maximal inhibition in assay [1] (IC50).

With Echistatin, the “affinity for the gp IIb/IIIa complex” value in the assay on gp IIb/IIIa complex was “high affinity”.
